Activity calls are given as the source filed them.
How the values were obtained:
[1] = biological target: T1, Apoptotic protease-activating factor 1 (Homo sapiens, UniProt O14727); test: activation of Apaf-1 mediated apoptosis – fluorescent, uHTS hits, dose response (AID 588554); assay type: functional
T1 sequence (O14727 whole entry): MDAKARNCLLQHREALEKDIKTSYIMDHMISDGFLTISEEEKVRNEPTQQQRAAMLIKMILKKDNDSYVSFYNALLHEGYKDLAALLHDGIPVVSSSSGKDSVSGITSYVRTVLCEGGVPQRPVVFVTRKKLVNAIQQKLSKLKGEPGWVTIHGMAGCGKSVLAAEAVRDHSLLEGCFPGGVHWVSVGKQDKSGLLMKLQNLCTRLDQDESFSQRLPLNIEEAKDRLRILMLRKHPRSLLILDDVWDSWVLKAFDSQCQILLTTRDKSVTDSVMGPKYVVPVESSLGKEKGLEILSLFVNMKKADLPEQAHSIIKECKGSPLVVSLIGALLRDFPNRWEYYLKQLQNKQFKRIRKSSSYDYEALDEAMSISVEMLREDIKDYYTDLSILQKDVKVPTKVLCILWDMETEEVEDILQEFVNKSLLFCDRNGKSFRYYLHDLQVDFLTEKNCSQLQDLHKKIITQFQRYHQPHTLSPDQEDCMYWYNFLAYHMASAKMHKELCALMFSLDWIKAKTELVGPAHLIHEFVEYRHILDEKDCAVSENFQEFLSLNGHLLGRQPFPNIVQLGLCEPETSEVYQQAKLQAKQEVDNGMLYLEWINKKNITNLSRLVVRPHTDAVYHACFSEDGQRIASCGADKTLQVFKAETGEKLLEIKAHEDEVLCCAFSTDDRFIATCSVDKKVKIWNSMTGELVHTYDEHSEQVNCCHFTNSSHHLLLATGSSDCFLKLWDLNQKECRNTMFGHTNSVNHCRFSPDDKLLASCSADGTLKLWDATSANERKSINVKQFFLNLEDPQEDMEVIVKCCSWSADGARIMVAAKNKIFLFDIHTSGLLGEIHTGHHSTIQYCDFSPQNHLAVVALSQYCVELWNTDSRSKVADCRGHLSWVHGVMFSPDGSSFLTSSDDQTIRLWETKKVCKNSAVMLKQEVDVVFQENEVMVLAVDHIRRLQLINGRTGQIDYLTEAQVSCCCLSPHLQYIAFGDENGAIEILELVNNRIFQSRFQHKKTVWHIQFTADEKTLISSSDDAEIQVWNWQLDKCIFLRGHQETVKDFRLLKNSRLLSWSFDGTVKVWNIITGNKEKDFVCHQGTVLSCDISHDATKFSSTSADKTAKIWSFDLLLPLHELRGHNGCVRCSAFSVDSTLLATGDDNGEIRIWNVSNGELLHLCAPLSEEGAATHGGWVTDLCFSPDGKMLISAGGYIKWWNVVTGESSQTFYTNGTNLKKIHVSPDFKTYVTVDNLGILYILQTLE

[2] = biological target: T2, Intestinal-type alkaline phosphatase (Homo sapiens, UniProt P09923); test: human intestinal alkaline phosphatase activators, dose response, biochemical, luminescence, uHTS hits (AID 463120); assay type: functional
[3] = biological target: T3, Alkaline phosphatase, tissue-nonspecific isozyme (Homo sapiens, UniProt P05186); test: activation of tissue-nonspecific alkaline phosphatase – biochemical, TNAP isozyme, human IAP uHTS hits, selectivity assay for human IAP activator project, dose response (AID 488886); assay type: functional;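 also: potency of compounds raising TNAP activity as a selectivity check on IAP activators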
T3 sequence (P05186 whole entry): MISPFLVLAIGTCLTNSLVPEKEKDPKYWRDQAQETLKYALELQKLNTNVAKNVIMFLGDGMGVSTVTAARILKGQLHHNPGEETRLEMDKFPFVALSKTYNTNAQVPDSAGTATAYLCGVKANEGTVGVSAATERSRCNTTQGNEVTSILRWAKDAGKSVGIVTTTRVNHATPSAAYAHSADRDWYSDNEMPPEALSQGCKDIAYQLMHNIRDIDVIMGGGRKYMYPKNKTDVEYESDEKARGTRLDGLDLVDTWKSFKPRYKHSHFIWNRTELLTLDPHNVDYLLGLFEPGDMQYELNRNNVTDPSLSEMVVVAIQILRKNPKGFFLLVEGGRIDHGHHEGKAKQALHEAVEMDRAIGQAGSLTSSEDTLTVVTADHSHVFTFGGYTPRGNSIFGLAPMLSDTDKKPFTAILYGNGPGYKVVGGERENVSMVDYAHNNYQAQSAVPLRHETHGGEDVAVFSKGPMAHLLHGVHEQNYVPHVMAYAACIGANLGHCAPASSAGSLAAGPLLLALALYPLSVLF

[4] = biological target: Intestinal-type alkaline phosphatase (Mus musculus, UniProt P24822); test: PubChem AID 488875; assay type: functional
[5] = biological target: T2, Intestinal-type alkaline phosphatase; test: activation of human intestinal alkaline phosphatase – biochemical, luminescent, uHTS hits, set 2, dose response (AID 488817); assay type: functional;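 also: potency of activators that raise enzyme activity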
Escherichia coli = test: microbe, parasite or virus in culture
[6] = biological target: T4, Dual specificity protein phosphatase 6 (Rattus norvegicus, UniProt Q64346)
T4 sequence (Q64346 whole entry): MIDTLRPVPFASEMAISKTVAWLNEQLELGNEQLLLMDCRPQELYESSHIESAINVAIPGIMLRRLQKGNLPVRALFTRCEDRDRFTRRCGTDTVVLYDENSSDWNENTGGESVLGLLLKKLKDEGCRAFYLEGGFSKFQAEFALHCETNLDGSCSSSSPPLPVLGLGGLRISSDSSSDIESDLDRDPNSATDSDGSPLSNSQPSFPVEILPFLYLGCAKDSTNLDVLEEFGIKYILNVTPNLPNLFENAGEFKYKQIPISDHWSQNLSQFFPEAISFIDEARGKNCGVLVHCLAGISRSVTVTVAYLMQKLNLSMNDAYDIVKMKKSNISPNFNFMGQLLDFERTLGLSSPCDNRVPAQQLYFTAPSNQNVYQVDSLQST

[7] = biological target: Glyceraldehyde-3-phosphate dehydrogenase (Homo sapiens, UniProt P04406)
[8] = biological target: T4, Dual specificity protein phosphatase 6; assay type: functional
[9] = biological target: T5, Tyrosine-protein phosphatase non-receptor type 7 (Homo sapiens, UniProt P35236); assay type: functional
T5 sequence (P35236 whole entry): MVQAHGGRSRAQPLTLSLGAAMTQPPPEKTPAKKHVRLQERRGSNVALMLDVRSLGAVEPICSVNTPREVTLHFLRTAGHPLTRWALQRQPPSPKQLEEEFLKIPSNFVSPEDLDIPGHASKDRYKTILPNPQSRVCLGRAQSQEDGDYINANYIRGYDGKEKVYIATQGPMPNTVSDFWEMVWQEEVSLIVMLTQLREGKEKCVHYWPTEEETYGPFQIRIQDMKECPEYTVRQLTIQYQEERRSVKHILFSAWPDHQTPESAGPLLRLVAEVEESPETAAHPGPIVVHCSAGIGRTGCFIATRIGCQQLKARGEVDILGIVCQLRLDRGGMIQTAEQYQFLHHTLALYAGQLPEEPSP

Cytochrome P450 2C19 = Cytochrome P450 2C19 (Homo sapiens, UniProt P33261); test: Cytochrome panel assay with activity outcomes. Panel member name: p450-cyp2c19 Compounds with AC50 equal or less than 10 uM are considered active; assay type: functional
Cytochrome P450 1A2 = biological target: T6, Cytochrome P450 1A2 (Homo sapiens, UniProt P05177);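 also: PubChem cytochrome P450 panel assay, CYP1A2 panel member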
T6 sequence (P05177 whole entry): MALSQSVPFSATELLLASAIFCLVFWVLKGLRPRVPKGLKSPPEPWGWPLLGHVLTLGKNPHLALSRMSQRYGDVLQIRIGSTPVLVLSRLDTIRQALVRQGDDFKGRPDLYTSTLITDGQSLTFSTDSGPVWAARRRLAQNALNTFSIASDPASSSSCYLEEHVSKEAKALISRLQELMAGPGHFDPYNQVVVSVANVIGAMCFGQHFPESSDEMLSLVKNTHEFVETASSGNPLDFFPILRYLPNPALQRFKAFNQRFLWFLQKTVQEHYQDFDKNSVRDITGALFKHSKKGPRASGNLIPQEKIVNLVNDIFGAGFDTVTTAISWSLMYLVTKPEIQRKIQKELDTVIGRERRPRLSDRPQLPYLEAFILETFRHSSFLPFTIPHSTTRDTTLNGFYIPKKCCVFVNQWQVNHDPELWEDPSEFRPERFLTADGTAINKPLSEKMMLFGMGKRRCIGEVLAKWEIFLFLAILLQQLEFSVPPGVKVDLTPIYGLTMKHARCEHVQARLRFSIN

Cytochrome P450 2D6 = Cytochrome P450 2D6 (Homo sapiens, UniProt P10635);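 also: CYP2D6 member of a cytochrome P450 panel assay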
Cytochrome P450 2C9 = Cytochrome P450 2C9 (Homo sapiens, UniProt P11712)
[10] = viability loss of HMLE_sh_eGFP cells – cell-based, luminescence, counter-screen for HMLE_sh_ECad selective toxicity project, dose response (AID 463074); assay type: functional, Homo sapiens;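 also: HMLE human mammary epithelial cells expressing control shRNA against eGFP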
[11] = Luminescence Cell-Based Dose Retest to Confirm Inhibitors of Cancer Stem Cells. [Related pubchem assays (depositor defined):AID2717, AID2721]; assay type: functional; conditions: Homo sapiens
[12] = biological target: T7, Beta-adrenergic receptor kinase 1 (Homo sapiens, UniProt P25098); test: Second cherry pick EC50 of compounds blocking aptamer binding to bead-bound GRK2 by flow cytometry, biochemical (AID 504815)
T7 sequence (P25098 whole entry): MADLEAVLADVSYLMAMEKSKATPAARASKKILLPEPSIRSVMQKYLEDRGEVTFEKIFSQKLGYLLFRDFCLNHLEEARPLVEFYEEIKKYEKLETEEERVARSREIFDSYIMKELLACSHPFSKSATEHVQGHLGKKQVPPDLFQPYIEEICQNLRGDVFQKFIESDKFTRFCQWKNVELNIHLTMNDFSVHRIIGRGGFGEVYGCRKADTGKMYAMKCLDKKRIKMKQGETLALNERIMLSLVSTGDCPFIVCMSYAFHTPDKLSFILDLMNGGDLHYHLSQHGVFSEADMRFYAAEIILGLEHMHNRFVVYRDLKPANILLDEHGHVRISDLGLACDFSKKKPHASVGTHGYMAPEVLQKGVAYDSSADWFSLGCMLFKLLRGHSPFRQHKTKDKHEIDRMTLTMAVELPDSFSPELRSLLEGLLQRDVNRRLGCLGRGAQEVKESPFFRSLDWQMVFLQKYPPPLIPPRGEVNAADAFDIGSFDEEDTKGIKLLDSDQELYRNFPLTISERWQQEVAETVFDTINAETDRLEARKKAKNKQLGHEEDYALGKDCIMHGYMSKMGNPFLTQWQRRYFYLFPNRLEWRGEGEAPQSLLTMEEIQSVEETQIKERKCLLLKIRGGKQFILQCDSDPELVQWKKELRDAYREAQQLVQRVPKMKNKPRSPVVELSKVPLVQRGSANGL

[13] = biological target: T7, Beta-adrenergic receptor kinase 1; test: blockers of aptamer binding to GRK2 – biochemical, flow cytometry beads, FAM-aptamer, powder set 1, dose response (AID 588720)
[14] = biological target: T8, Voltage-gated N-type calcium channel alpha-1B subunit/Amyloid beta A4 precursor protein-binding family A member 1 (Homo sapiens, UniProt Q00975+Q02410); assay type: protein assay
[15] = biological target: T9, Carboxy-terminal domain RNA polymerase II polypeptide A small phosphatase 1 (Homo sapiens, UniProt Q9GZU7); test: CTDSP1 inhibitors, concentration-response, biochemical, absorbance readout, ultra-high-throughput screen actives (AID 540297); assay type: functional
T9 sequence (Q9GZU7 whole entry): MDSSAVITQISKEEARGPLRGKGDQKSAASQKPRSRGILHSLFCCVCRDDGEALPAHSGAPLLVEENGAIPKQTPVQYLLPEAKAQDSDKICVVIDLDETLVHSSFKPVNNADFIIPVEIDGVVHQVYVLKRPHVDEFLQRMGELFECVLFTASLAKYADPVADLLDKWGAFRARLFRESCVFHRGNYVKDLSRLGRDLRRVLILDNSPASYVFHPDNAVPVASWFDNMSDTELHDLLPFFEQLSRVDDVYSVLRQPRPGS

[16] = biological target: G-protein coupled receptor 35 (Homo sapiens, UniProt Q9HC97); test: inhibition of zaprinast-stimulated GPR35 beta-arrestin translocation – imaging, U2OS, beta-arrestin-GFP, zaprinast agonist, primary screen (AID 2058); assay type: functional;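 also: antagonist potency meaning inhibition of agonist-induced arrestin redistribution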
[17] = biological target: T8, Voltage-gated N-type calcium channel alpha-1B subunit/Amyloid beta A4 precursor protein-binding family A member 1; assay type: protein assay; remark: listed apart in the source
[18] = biological target: T10, Small ubiquitin-related modifier 1 (Homo sapiens, UniProt P63165); test: SUMO1 protein interaction blockers, potency – biochemical, fluorescence polarization, uHTS hits, dose response (AID 624382); assay type: functional; conditions: read-out: IC50_Mean
[19] = biological target: T10, Small ubiquitin-related modifier 1; test: SUMO1 protein-protein binding blockers, potency – biochemical, FRET, dose response (AID 624383); assay type: functional; conditions: read-out: IC50_Mean

T2 sequence (P09923 whole entry): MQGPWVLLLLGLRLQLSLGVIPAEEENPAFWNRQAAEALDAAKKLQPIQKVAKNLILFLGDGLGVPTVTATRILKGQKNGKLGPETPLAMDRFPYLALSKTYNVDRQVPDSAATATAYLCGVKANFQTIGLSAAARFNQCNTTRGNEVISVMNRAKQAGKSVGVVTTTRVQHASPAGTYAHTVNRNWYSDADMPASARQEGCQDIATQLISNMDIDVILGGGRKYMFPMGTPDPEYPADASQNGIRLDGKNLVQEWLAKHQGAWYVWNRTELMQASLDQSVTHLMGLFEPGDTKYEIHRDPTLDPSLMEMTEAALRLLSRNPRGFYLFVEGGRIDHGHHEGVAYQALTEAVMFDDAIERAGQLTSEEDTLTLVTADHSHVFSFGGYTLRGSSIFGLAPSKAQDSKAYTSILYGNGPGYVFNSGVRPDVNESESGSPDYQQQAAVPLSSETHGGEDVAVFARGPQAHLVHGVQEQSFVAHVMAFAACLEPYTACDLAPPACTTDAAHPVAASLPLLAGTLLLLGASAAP
T8 sequence (Q00975 whole entry, the tested form may be a part): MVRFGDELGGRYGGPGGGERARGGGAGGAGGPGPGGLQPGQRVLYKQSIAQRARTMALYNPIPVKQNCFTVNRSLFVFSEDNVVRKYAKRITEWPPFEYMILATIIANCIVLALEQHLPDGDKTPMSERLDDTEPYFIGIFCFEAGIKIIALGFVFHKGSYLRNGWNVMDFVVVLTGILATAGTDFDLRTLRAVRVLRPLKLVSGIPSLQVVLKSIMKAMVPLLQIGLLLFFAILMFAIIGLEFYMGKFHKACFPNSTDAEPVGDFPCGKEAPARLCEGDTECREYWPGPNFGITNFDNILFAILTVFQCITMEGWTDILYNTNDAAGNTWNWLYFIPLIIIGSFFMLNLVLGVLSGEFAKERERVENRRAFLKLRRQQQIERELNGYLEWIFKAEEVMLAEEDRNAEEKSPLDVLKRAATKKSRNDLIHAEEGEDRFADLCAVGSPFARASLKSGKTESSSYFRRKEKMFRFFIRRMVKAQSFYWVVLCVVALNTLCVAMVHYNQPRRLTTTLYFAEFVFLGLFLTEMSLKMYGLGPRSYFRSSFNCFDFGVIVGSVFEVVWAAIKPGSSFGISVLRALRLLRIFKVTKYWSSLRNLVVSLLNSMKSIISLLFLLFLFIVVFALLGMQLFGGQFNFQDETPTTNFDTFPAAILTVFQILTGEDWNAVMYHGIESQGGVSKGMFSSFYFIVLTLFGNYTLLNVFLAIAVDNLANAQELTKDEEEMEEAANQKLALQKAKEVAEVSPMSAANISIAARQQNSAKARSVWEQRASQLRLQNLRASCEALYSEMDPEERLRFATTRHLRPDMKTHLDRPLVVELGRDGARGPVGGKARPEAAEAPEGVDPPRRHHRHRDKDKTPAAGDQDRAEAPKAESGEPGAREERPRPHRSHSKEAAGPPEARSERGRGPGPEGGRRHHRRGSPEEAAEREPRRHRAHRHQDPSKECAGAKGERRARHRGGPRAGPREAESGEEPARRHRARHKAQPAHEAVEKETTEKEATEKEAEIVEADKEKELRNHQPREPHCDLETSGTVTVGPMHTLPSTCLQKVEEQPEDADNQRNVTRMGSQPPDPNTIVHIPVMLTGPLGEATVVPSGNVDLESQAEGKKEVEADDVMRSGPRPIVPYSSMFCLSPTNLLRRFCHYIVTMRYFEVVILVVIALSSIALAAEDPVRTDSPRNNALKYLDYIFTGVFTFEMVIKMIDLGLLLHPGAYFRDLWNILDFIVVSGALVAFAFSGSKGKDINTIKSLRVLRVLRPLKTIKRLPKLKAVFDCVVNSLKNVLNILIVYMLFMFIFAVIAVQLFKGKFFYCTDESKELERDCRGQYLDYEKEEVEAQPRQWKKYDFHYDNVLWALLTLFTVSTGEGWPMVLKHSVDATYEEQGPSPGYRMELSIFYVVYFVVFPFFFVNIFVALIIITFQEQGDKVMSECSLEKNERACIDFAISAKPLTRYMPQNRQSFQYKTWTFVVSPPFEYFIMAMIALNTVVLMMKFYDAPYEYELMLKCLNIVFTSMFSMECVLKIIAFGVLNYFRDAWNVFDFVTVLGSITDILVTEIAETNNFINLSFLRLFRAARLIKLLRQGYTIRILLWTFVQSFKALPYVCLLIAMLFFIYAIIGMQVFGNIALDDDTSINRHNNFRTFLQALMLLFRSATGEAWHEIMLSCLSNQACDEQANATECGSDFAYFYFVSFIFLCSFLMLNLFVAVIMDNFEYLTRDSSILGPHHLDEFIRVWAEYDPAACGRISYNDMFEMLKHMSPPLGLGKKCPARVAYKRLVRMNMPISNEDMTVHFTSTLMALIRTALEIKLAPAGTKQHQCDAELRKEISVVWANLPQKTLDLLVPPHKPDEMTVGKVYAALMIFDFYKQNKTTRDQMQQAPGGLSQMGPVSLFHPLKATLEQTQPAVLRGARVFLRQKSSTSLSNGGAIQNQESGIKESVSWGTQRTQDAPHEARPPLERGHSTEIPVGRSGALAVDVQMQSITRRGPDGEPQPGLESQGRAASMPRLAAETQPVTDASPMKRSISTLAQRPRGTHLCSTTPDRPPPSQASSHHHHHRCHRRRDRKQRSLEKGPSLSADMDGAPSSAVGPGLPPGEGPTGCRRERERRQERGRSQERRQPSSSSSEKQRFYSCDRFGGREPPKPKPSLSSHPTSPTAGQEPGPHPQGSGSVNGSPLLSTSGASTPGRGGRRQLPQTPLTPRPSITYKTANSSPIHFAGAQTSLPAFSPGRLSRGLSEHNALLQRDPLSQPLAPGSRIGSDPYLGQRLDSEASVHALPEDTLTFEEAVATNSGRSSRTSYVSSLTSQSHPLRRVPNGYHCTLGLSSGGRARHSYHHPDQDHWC
T8 sequence (Q02410 whole entry, the tested form may be a part): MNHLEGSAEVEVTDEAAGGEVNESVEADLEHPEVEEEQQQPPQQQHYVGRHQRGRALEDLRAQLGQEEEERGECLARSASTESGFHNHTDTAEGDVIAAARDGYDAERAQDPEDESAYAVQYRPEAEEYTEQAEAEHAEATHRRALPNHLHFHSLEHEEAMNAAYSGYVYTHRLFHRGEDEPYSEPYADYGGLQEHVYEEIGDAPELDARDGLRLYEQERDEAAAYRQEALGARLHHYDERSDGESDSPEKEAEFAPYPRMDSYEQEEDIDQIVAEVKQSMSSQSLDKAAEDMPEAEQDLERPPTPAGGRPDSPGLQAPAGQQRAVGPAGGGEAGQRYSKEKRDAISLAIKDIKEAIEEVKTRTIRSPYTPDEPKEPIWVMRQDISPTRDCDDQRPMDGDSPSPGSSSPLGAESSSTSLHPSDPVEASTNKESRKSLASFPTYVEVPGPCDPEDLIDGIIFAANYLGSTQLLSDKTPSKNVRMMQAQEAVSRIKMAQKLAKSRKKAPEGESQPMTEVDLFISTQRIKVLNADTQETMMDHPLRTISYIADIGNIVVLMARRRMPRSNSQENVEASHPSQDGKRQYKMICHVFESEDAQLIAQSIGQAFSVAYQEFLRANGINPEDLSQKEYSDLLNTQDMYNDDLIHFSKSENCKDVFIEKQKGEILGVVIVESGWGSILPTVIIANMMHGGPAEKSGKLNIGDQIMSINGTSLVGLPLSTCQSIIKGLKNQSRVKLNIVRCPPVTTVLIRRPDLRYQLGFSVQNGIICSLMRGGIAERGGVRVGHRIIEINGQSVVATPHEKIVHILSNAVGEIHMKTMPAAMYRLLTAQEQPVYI
T10 sequence (P63165 whole entry): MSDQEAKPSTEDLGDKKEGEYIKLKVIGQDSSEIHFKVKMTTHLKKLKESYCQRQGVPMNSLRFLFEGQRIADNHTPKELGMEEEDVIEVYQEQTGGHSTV
Glyceraldehyde-3-phosphate dehydrogenase, sequence (P04406 whole entry): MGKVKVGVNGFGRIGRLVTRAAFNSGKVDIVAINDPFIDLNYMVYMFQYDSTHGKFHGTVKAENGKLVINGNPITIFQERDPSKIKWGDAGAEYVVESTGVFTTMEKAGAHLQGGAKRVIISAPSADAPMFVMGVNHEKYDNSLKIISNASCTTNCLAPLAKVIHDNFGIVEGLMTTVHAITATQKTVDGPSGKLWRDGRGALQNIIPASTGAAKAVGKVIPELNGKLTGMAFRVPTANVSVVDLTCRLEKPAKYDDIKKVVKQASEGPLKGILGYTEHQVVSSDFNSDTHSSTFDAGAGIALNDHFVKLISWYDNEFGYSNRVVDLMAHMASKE
Cytochrome P450 2C19, sequence (P33261 whole entry): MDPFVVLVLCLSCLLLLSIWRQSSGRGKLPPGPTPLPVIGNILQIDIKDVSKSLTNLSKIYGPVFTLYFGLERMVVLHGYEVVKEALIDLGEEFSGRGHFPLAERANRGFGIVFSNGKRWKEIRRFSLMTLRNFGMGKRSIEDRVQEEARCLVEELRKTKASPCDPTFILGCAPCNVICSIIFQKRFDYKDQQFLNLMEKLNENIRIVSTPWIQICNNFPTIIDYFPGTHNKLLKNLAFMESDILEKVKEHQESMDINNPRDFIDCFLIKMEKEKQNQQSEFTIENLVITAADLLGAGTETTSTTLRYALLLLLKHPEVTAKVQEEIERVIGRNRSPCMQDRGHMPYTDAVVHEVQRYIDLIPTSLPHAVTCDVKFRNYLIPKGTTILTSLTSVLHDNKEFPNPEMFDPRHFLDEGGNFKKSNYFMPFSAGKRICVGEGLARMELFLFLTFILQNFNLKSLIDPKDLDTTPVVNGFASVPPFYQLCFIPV
G-protein coupled receptor 35, sequence (Q9HC97 whole entry): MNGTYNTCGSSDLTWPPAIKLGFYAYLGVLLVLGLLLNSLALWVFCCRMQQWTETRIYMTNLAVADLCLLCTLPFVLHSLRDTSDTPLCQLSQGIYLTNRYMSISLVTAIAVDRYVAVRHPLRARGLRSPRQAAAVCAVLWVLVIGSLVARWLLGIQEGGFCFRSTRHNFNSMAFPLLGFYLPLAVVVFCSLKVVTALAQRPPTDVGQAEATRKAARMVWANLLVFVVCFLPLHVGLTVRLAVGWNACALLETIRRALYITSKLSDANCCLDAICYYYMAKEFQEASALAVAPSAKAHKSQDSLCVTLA

Cc1cc(C)n(CC(C)C(=O)O)n1 (centres undefined)
EC50 [1]: 10.9 µM (active)

CC(C)(C)NC(=O)C(=O)NNC(=O)COc1ccccc1
EC50 [2]: 28 µM (active)
EC50 [3]: 36.4 µM (active)
EC50 [4]: > 100 µM (inactive)
EC50 [5]: 28.4 µM (active)

Cc1ccc(-n2nnnc2SCC(=O)Nc2ccc3c(c2)OCCO3)cc1C
AC50 (Escherichia coli): 30.9 µM (active)

O=c1nc(NCCc2ccccc2)[nH]c(=O)n1-c1ccccc1
IC50 [6]: > 100 µM (inactive)
IC50 [7]: > 100 µM (not active)
IC50 [8]: > 100 µM (inactive)
IC50 [9]: > 100 µM (not active)

O=C(c1cc(C(F)(F)F)cc(C(F)(F)F)c1)N1CCC2(CC1)CN(c1ncccn1)C2
AC50 (Cytochrome P450 2C19): inconclusive
AC50 (Cytochrome P450 1A2): inconclusive
AC50 (Cytochrome P450 2D6): inconclusive
AC50 (Cytochrome P450 2C9): inconclusive

O=C(CCS(=O)(=O)c1ccccc1)Nc1nc(-c2ccc(F)cc2)cs1
AC50 [10]: 143 µM (active)
AC50 [11]: 10.4 µM (active)

NS(=O)(=O)c1ccc(CCNC(=O)CCS(=O)(=O)c2ccc(Br)cc2)cc1
EC50 [12]: 5.2 µM (active)
EC50 [13]: 1.21 µM (active)
IC50 [14]: > 50 µM (inactive)
IC50 [15]: 4.17 µM (active)
IC50 [16]: 2.23 µM (active)
IC50 [17]: 40.9 µM (active)
IC50 [18]: > 66.6 µM (inactive)
IC50 [19]: 9.08 µM (active)
